What is called IC50 is the concentration needed to halve the response being measured. For orientation: inhibition means the relative decrease from the control value, in per cent. The term half-life denotes how long it takes for the measured level to halve.

Read-outs that look alike come from different tables or passages of the source.

The source of these data is patent US9884839B2, “Inhibitors of 17Beta-hydroxysteroid dehydrogenases type 1 and type 2” (ElexoPharm GmbH, priority 2014, dated 2018).

For one data set, the target named is T1, human 17β-HSD1 (Homo sapiens, UniProt P14061).
T1 construct: For the partial purification of 17β-HSD1, the cytosolic fraction was precipitated with ammonium sulfate; from tissue; host or cells: human placenta, cytosolic fraction, ammonium sulfate precipitate
T1 sequence (P14061 1-328): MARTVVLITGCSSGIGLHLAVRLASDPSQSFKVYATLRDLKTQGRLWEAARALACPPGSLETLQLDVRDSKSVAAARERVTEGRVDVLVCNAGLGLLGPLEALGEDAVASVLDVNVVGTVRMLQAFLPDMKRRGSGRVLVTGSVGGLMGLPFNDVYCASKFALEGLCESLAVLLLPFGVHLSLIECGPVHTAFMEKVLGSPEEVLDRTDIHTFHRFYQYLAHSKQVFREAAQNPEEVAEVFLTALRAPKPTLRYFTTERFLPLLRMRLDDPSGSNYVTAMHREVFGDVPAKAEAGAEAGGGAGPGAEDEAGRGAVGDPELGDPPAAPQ
The data set can be described thus: Inhibition of human 17β-HSD1 (conversion of [3H]-E1 to E2, HPLC radioflow detection). Format: biochemical.

For a further data set, the target named is T2, mouse 17β-HSD1 (Mus musculus, UniProt P51656).
T2 construct: made in house; host or cells: HEK293 cells, transient transfection; 1,000 g supernatant of the cell lysate
T2 sequence (P51656 1-344): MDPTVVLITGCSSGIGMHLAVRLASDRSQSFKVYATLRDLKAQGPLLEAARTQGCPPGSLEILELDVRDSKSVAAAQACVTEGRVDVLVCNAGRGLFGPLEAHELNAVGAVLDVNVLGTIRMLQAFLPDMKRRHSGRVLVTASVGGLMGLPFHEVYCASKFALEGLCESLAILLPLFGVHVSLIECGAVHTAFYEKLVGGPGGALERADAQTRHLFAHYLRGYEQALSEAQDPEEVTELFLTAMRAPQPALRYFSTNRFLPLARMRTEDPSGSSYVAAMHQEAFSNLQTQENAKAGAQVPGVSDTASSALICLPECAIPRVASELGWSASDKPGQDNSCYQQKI
Description: Inhibition of mouse 17β-HSD1 (recombinant, HEK293 lysate). Format: biochemical.

The conditions of data set [1]: human liver S9, 1 mg/mL; unit not given.
For a further data set, the target named is T3, human 17β-HSD2 (Homo sapiens, UniProt P37059).
T3 construct: 17β-HSD2 was obtained from the microsomal fraction; from tissue; host or cells: human placenta, microsomal fraction
T3 sequence (P37059 1-387): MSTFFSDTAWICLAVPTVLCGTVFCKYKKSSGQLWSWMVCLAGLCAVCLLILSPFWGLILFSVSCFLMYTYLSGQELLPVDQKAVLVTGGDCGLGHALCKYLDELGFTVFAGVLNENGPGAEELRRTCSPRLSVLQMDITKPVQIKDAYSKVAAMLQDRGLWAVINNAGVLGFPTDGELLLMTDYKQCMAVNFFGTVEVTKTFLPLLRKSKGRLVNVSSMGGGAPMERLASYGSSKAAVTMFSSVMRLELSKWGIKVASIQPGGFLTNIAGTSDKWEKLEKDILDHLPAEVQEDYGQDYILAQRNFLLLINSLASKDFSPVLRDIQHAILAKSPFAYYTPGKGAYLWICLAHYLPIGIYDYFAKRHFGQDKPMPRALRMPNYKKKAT
The data set can be described thus: Inhibition of human 17β-HSD2 (conversion of [3H]-E2 to E1). Format: biochemical. Particulars: read-out: IC50 [nM] h17β-HSD2.

In a further data set the target is T4, mouse 17β-HSD2 (Mus musculus, UniProt P51658).
T4 construct: The pellet fractions containing the microsomal 17β-HSD2 were used for the determination of E1 formation; from tissue; host or cells: mouse liver, microsomal fraction
T4 sequence (P51658 1-381): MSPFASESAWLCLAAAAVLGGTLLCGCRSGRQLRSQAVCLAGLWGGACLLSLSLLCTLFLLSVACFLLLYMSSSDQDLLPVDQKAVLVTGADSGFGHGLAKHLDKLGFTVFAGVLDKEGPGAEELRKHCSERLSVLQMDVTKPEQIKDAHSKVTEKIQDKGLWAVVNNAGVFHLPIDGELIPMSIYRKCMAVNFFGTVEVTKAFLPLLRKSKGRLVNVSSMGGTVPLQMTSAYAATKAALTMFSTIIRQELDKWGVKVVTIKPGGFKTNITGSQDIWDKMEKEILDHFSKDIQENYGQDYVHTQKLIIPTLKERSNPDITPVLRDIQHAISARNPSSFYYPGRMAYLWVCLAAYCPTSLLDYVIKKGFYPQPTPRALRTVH
The data set can be described thus: Inhibition of mouse 17β-HSD2 (liver microsomal fraction). Format: biochemical. Particulars: for inhibition at 1 µM: read-out: Inhibition @ 1 μM m17β-HSD2; for IC50: read-out: IC50 m17β-HSD2. A general note: Liver microsomes are vesicles of endoplasmic reticulum, rich in cytochrome P450 enzymes.

The next data set in a line: in vitro. Particulars: human, pooled human liver S9 fraction.
In a further data set the target is T5, rat 17β-HSD1 (Rattus norvegicus, UniProt P51657).
T5 construct: made in house; host or cells: HEK293 cells, transient transfection; 1,000 g supernatant of the cell lysate
T5 sequence (P51657 1-344): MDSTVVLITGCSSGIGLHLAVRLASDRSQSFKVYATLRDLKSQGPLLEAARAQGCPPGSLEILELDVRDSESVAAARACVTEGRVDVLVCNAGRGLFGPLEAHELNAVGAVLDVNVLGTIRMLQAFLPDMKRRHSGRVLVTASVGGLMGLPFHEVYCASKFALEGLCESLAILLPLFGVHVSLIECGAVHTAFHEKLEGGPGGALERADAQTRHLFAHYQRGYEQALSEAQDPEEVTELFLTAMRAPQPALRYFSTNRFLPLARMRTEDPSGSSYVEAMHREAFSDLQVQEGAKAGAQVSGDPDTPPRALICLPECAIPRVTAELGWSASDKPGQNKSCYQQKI
The data set can be described thus: Inhibition of rat 17β-HSD1 (recombinant, HEK293 lysate). Particulars: read-out: % Inhibition r17β-HSD1; for inhibition at 5 µM: Cmpd conc. 5000 nM; for inhibition at […]: Cmpd conc. 250 nM. Format: biochemical.

For another data set, the target named is T6, rat 17β-HSD2 (Rattus norvegicus, UniProt Q62730).
T6 construct: The pellet fractions containing the microsomal 17β-HSD2 were used for the determination of E1 formation; from tissue; host or cells: rat liver, microsomal fraction
T6 sequence (Q62730 1-381): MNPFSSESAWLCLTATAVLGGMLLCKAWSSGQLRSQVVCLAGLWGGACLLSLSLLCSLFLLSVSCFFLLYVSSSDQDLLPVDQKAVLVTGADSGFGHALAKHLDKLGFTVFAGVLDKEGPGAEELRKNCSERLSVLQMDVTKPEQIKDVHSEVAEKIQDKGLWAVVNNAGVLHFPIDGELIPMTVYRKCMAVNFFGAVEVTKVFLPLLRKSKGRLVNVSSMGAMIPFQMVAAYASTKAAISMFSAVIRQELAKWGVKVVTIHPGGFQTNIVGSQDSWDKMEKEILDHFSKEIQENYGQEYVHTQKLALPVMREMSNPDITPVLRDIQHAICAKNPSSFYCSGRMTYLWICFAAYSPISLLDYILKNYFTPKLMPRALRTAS
Description: Inhibition of rat 17β-HSD2 (liver microsomal fraction). In kind it is biochemical. Particulars: read-out: % Inhibition r17β-HSD2.

[2] abbreviates: human placental cytosolic enzyme, E1 500 nM, NADH, Tables 1, 4-11, read-out: IC50 [nM] h17β-HSD1.
[3] abbreviates: read-out: Inhibition @ 1 μM m17β-HSD1.
[4] abbreviates: read-out: % inhibition m17β-HSD1 @ 1 μM.

In the case of `O=C(c1ccc(-c2cccc(Cl)c2)s1)c1c(F)ccc(O)c1F` [Compound 11, [5-(3-Chloro-phenyl)-thiophen-2-yl]-(2,6-difluoro-3-hydroxy-phenyl)-methanone], the IC50 stood at 1.2 nM at human 17β-HSD1 (setting [2]) and 10 nM at human 17β-HSD2. The values for the inhibition at 1 µM at mouse 17β-HSD1 (setting [3]) and at mouse 17β-HSD2 were 60% and 75%, respectively. In data set [1], this compound registered a CLint of 160.7. Also, the half-life at 1 µM in “in vitro” came to 4.3 min.

Turning to `COc1ccc(-c2ccc(C(=O)c3c(F)ccc(O)c3F)s2)cc1Cl` [Compound 12, [5-(3-Chloro-4-methoxy-phenyl)-thiophen-2-yl]-(2,6-difluoro-3-hydroxy-phenyl)-methanone], the IC50 on human 17β-HSD1 (setting [2]) is 1.3 nM; at human 17β-HSD2 it was 11 nM. Further, the inhibition at 1 µM was found to be 40% at mouse 17β-HSD1 (setting [3]) and 64% at mouse 17β-HSD2. Besides, in data set [1], the CLint is 149.6. In “in vitro”, the half-life at 1 µM turned out to be 4.6 min.

`COc1c(Cl)cc(-c2ccc(C(=O)c3c(F)ccc(O)c3F)s2)cc1Cl` [Compound 15, [5-(3,5-Dichloro-4-methoxy-phenyl)-thiophen-2-yl]-(2,6-difluoro-3-hydroxy-phen-yl)-methanone]: the IC50 was determined as 0.6 nM at human 17β-HSD1 (setting [2]); 41 nM at human 17β-HSD2; 550 nM on mouse 17β-HSD2 (mouse liver microsomal fraction, E2 10 nM, NAD+). Further, at mouse 17β-HSD1 (setting [3]), the inhibition at 1 µM came to 43%. Besides, the CLint in data set [1] is 38.3. The compound also gave a half-life at 1 µM in the data set “in vitro” of 18.1 min.

Take `Cc1cc(C(=O)c2c(F)ccc(O)c2F)sc1-c1ccc(O)c(Cl)c1` [Compound 21, [5-(3-Chloro-4-hydroxy-phenyl)-4-methyl-thiophen-2-yl]-(2,6-difluoro-3-hydroxy-phenyl)-methanone]: the values for the IC50 at human 17β-HSD1 (setting [2]), at human 17β-HSD2 and on mouse 17β-HSD2 were 0.8 nM, 11 nM and 78 nM, respectively. Also, at mouse 17β-HSD1 (setting [3]), the inhibition at 1 µM was 38%. The compound also yielded a CLint in data set [1] of 241.4. Besides, in the data set “in vitro”, the half-life at 1 µM turned out to be 2.9 min.

Consider `O=C(c1ccc(-c2cc(Cl)c(O)c(Cl)c2)s1)c1c(F)ccc(O)c1F` [Compound 23, [5-(3,5-Dichloro-4-hydroxy-phenyl)-thiophen-2-yl]-(2,6-difluoro-3-hydroxy-phen-yl)-methanone], for which the IC50 on human 17β-HSD1 (read-out: IC50 [nM] h17β-HSD1) was 2.4 nM; on human 17β-HSD2 it was 39 nM; at mouse 17β-HSD2, 209 nM. For the same compound, at mouse 17β-HSD1 (setting [3]), the inhibition at 1 µM was found to be 23%. In data set [1], this compound gave a CLint of 5.4. In addition, the inhibition at 5 µM on rat 17β-HSD1 was determined as 59%. In the data set “in vitro”, this compound showed a half-life at 1 µM of 129 min.

Turning to `N#Cc1cc(-c2ccc(C(=O)c3c(F)ccc(O)c3F)s2)ccc1O` [Compound 25, 5-[5-(2,6-Difluoro-3-hydroxy-benzoyl)-thiophen-2-yl]-2-hydroxy-benzonitrile], the values for the IC50 on human 17β-HSD1 (setting [2]) and at human 17β-HSD2 were 3.3 nM and 29 nM, respectively. For the same compound, the inhibition at 1 µM at mouse 17β-HSD1 (setting [3]) stood at 23%; on mouse 17β-HSD2, 40%. This compound also displayed a CLint in data set [1] of 64.5. The compound also showed a half-life at 1 µM in “in vitro” of 10.7 min.

Take `O=C(c1ccc(-c2cccc(NS(=O)(=O)c3ccc(Br)cc3OC(F)(F)F)c2)s1)c1cc(F)c(F)c(O)c1F` [Compound 36, 4-Bromo-N-{3-[5-(2,4,5-trifluoro-3-hydroxybenzoyl)thiophen-2-yl]phenyl}-2-trifluoromethoxybenzenesulfonamide]: the 50% inhibitory concentration (IC50) at human 17β-HSD1 was found to be 2.4 nM. Further, the inhibition at 1 µM at mouse 17β-HSD1 (setting [4]) and on mouse 17β-HSD1 (setting [3]) was 68% in each case. The inhibition at […] is 100% at rat 17β-HSD2 and 50% at rat 17β-HSD1.

Turning to `O=C(c1ccc(-c2cccc(NS(=O)(=O)c3ccccc3C(F)(F)F)c2)s1)c1cc(F)c(F)c(O)c1F` [Compound 38, N-{3-[5-(2,4,5-Trifluoro-3-hydroxybenzoyl)thiophen-2-yl]phenyl}-2-trifluoromethylbenzenesulfonamide], the IC50 against human 17β-HSD1 was 4.8 nM. Besides, the inhibition at 1 µM on mouse 17β-HSD1 (setting [4]) and at mouse 17β-HSD1 (setting [3]) was 81% throughout. The inhibition at […] was found to be 96% at rat 17β-HSD2 and 41% at rat 17β-HSD1.

Consider `O=C(c1ccc(-c2ccc(O)c(Cl)c2)s1)c1cc(F)c(F)c(O)c1F` [Compound 41, (5-(3-Chloro-4-hydroxyphenyl)thiophen-2-yl)(2,4,5-trifluoro-3-hydroxyphenyl)methanone], for which the IC50 is 1.1 nM on human 17β-HSD1 (setting [2]) and 3.1 nM on human 17β-HSD2. In addition, the results for the inhibition at 1 µM at mouse 17β-HSD1 (setting [3]) and on mouse 17β-HSD2 were 33% and 89%, respectively. Further, in data set [1], the CLint was 61.5. The half-life at 1 µM in “in vitro” came out at 11.3 min.

For the compound `Cc1cc(-c2ccc(C(=O)c3cc(F)c(F)c(O)c3F)s2)cc(C)c1O` [Compound 50, (5-(4-Hydroxy-3,5-dimethylphenyl)thiophen-2-yl)(2,4,5-trifluoro-3-hydroxyphenyl)methanone], the IC50 was 0.9 nM at human 17β-HSD1 (setting [2]); 650 nM at mouse 17β-HSD1 (recombinant mouse enzyme, E1 10 nM, NADPH, read-out: IC50 m17β-HSD1); 1.3 nM at human 17β-HSD2; 100 nM at mouse 17β-HSD2. This compound also had a CLint in data set [1] of 18.2. In addition, in the data set “in vitro”, the half-life at 1 µM was found to be 38 min.

Regarding `Cc1cc(-c2ccc(C(=O)c3cccc(O)c3)s2)ccc1O` [Compound F1, reference compound], the figures for the IC50 on human 17β-HSD1 (read-out: IC50 [nM] h17β-HSD1) and on human 17β-HSD2 were 8 nM and 384 nM, respectively. The inhibition at 1 µM on mouse 17β-HSD1 (setting [3]) was 18%; at mouse 17β-HSD2 it was 22%. For the same compound, the CLint in data set [1] was 193.8. The inhibition at 5 µM at rat 17β-HSD1 is 48%. The compound further displayed a half-life at 1 µM in the data set “in vitro” of 3.6 min.
